# Measured values: PubChem BioAssay AID1996
# Details: buffer; pH 7.4; 200.0 µM
row,SMILES,solubility kinetic [µg/mL]
1,Brc1cc2c(cc1-c1nc3ccccc3s1)OCO2,< 0.7
2,CC(CN1CCOCC1)OC(=O)c1ccc(C(C)(C)C)cc1.Cl (centres undefined),18.2
3,Cc1nc(N)nc(SCc2ccc([N+](=O)[O-])cc2)c1N,16.1
4,NC(C(=O)O)C(c1ccccc1)C(F)F (centres undefined),30
5,NC(=O)C1CCN(C(=O)COc2ccc3c4c(c(=O)oc3c2)CCCC4)CC1,> 57.7
6,CCOC(=O)Cc1c(C)nc(N)[nH]c1=O,31.1
7,CSc1ccc(/C=C/C(=O)OCC(=O)N2CCCCCC2)cc1,3.8
8,Cc1ccc(S(=O)(=O)N(C)CC(=O)N2CCC(C(N)=O)CC2)cc1,> 53
9,CCN(CC)CC(C)OC(=O)c1ccccc1Cl (centres undefined),37.9
10,Cc1ccc(/C=N/N2CCOCC2)s1,> 31.5
11,NC(=O)CSc1ccc(S(=O)(=O)N2CCCCC2)cn1,44.6
12,CC(C)c1ccc(NC(=O)C2CSC3(C)CCC(=O)N23)cc1 (centres undefined),24.9
13,CCN(Cc1ccccc1)S(=O)(=O)c1ccc(F)cc1,15.6
14,COc1cc(S(=O)(=O)NC2CCCC2)c(OC)cc1C,26.5
15,COc1ccccc1CCNC(=O)C1(C)CC1(Cl)Cl (centres undefined),> 45.3
16,O=C(c1cc(Cl)nc2ccccc12)N1CCc2ccccc2C1,34.5
17,O=Cc1c(NCCCN2CCCC2=O)c2ccccc2[nH]c1=O,> 47
18,CN(Cc1cccc(F)c1)C(=O)C1CC(=O)N(c2ccc3c(c2)OCCO3)C1 (centres undefined),> 57.7
19,CC1Cc2ccccc2N1C(=O)COc1ccc2c(c1)OCO2 (centres undefined),43.1
20,Cc1noc(C)c1C(=O)OCC(=O)N1CCc2ccccc21,4.8

row,SMILES,solubility kinetic [µg/mL]
1,COc1ccc(CCNC(=O)COC(=O)c2cc(Cl)nc(Cl)c2)cc1,23.6
2,COc1cc(C)c(S(=O)(=O)N2CCOCC2)c(C)c1C,> 44.9
3,COc1cccc2cc(C(=O)NCCN3CCOCC3)c(=O)oc12,> 49.9
4,Cc1ccc(C(C)C)c(OCCOCCN2CCNCC2)c1.O=C(O)C(=O)O,52.1
5,O=C(CCCCC(=O)Nc1ccc(F)cc1F)Nc1ccc(F)cc1F,4.4
6,Cc1cc(SCc2cccc([N+](=O)[O-])c2)nc(=O)[nH]1,35.3
7,COc1ccc([N+](=O)[O-])cc1NC(=O)C(C)OC(=O)C1CCCC1 (centres undefined),12
8,O=C(CN1C(=O)C2C3CCC(C3)C2C1=O)OCC(=O)c1ccc(Br)cc1 (centres undefined),> 63
9,Cc1cc(S(=O)(=O)Nc2noc3ccccc23)ccc1F,41.2
10,Cc1cc(Sc2nc(N(C)C)nc(N(C)C)n2)nc(Cl)n1,1
11,CS(=O)(=O)N1CCN(CC(=O)NC2CCCC2)CC1,> 43.4
12,O=C(CN1CCCC1)NCC(=O)Nc1ccc(F)cc1,> 41.9
13,O=C(Nc1cccc(S(=O)(=O)NC2=NCCC2)c1)c1ccccc1,> 51.5
14,C1CCC2S[C@H]3CCCCC3NC2C1 (some centres undefined),25.3
15,COc1ccc(OCC(=O)NS(=O)(=O)c2ccccc2)cc1,> 48.2
16,CCOC(=O)C(NC(C)=O)C(O)c1ccc([N+](=O)[O-])cc1 (centres undefined),43.2
17,O=C(Nc1ccc(F)cc1)NC1CCCc2ccccc21 (centres undefined),0.7
18,Cc1ccc2c(COC(=O)CNC(=O)c3ccco3)cc(=O)oc2c1C,13.1
19,COc1ccc(C(=S)N2CCN(c3cccc(Cl)c3)CC2)cc1,1.2
20,COc1ccc2c(c1)CCC/C2=N\OC(=O)c1ccccc1F,< 0.7

row,SMILES,solubility kinetic [µg/mL]
1,O=C(Nc1ccc2c(c1)CCC2)c1ccc(Br)s1,< 0.7
2,CNC(=O)/C(C#N)=C/c1c(N2CCCCCC2)nc2c(C)cccn2c1=O,50.4
3,CCOC(=O)C1CCCN(CC(=O)Nc2nccs2)C1 (centres undefined),> 44.6
4,Cc1ccc(SCC(=O)NC(C)c2ccccc2)cc1 (centres undefined),> 42.8
5,Cc1nc(/C(N)=N/OC(=O)c2ccccc2Cl)c(C(F)(F)F)o1,35.8
6,COC(=O)C1CCN(C(=O)CN2C(=O)NC3(CCC(C)CC3)C2=O)CC1 (centres undefined),> 54.8
7,COc1cccc(C(=O)N2CCC(C(=O)NCc3ccco3)CC2)c1,50.6
8,CCC1(c2ccc(Cl)cc2)NC(=O)N(CC(=O)N2CCN(C(=O)c3ccco3)CC2)C1=O (centres undefined),> 68.8
9,CCCc1nc2oc3ccccc3c(=O)c2c(=O)n1CCCOC,> 49.3
10,CC(C)C1Nc2ccc(C(=O)O)cc2C2C=CCC21 (centres undefined),> 38.6
11,COc1ccc2c(c1)CC(C(=O)Nc1ccc(Cl)cc1)/C(=N/O)O2 (centres undefined),< 0.4
12,COc1cccc(NC(=O)N2CCCCCC2)c1,> 37.2
13,Fc1ccccc1CN1CCN(c2ccc(Cl)cc2)CC1,1
14,CCc1nonc1NC(=O)c1oc2ccc(F)cc2c1C,0.3
15,CCNS(=O)(=O)c1ccc(CCC(=O)NCc2ccncc2)cc1,> 52.1
16,O=C(O)CNc1nc(-c2ccccc2)nc2c1oc1ccccc12,> 47.9
17,O=C(NCCN1CCN(c2ccc([N+](=O)[O-])cc2)CC1)NCc1ccccc1,> 57.5
18,CCC1(C)Cc2c(sc3nc(SC)[nH]c(=S)c23)CO1 (centres undefined),8.9
19,c1ccc2c(c1)CCc1ccccc1C2=C1CCNCC1,30.7
